Test system: contractile response to angiotensin II in excised guinea pig ileum
Assay: Inhibition by the antagonist of contractile response to angiotensin II in excised guinea pig ileum
Settings: excised guinea pig ileum longitudinal strips; angiotensin II 10^-8 g/ml; test compound added 3 minutes prior; atropine present; 37° C.; read-out: IC50 (inhibition of angiotensin II contraction, percentage change to control response)
Experimental: [2] Inhibition by the antagonist of contractile response to angiotensin II in excised guinea pig ileum
Male guinea pigs weighing 300 g to 500 g were sacrificed by decapitation and the ileum were excised. Longitudial strips of the ileum (length: 2 cm) were placed in a 25 ml organ bath containing Tyrode's solution of the following composition (mM): NaCl, 137; KCl, 2.7; CaCl2, 1.8; MgCl2, 1.1; NaH2 PO4, 0.4; NaHCO3, 12; Glucose, 5.6.
The bath was maintained at 37° C. and bubbled with 95% O2 +5% CO2. The strips was stretched with a resting force of 0.5 g, and the isometric contraction were recorded via force development transducer on an ink-writing recorder. The preparation was equilibrated in Tyrode's solution mentioned above for 30 minutes, and then exposed to atropine (3.2×10^-7 g/ml) Five minutes later, the response for angiotensin II (1×10^-8 g/ml) was obtained and the preparation was washed a few times. This procedure was repeated twice. […] The inhibition of the test compound for angiotensin II contraction were expressed as a percentage change to control response, and IC50 (M) was calculated.

For `CCCCc1nc2c(C)ccnc2n1Cc1ccc(-n2cc(Br)cc2-c2nnn[nH]2)cc1` [Compound 1, 3-[4-[4-Bromo-2-(1H-tetrazol-5-yl)-1-pyrrolyl]benzyl]-2-butyl-7-methyl-3H-imidazo[4,5-b]pyridine], the IC50 was 1.7 nM.

— patent US5215994A, “Angiotenin II antagonizing heterocyclic derivatives” (Fujisawa Pharmaceutical Co., Ltd., priority 1990, dated 1993)
